Patent US6274611A, “Methods and compositions for inhibition of viral replication” (The United States of America as represented by the …, priority 1999, dated 2001)
Entries after “also recorded” stand apart in the source; their conditions may differ.

Key:
HIV-1 [1] = test: HIV-1 activation in TNF-α-treated OM-10.1 cultures, culture supernatant reverse transcriptase activity; format: cell-based, HIV-1 in OM-10.1 cells; details: for HIV-1 inhibitory activity in the OM-10.1 induction system: OM-10.1 cells, TNF-α induction
Procedure: (§1) FIG. 2 is a graph showing the inhibition of HIV-1 expression and toxicity in OM-10.1 cells by DRB, and similarity to inhibition imposed by chrysin and PD 144795. Reverse transcriptase activity (--.ae butted.--) was measured (as taught in Butera et al, Mol. Med. vol. 1, pp. 758-767 (1995)) in culture supernatants 48 hr after HIV activation, and cell viability (--.tangle-solidup.--) was assessed at 24 hr by flow cytometric analysis of propidium iodide exclusion. Inset: A graph showing the inhibition of HIV-1 expression in OM-10.1 cells by chrysin- (--Δ--) and PD 144795 (--.star.--) treatment of HIV-1.
(§2) OM-10.1 and HL-60 cells as described in Example 1 were propagated in RPMI-1640 supplemented with 10% heat-inactivated fetal calf serum, 2 mM glutamine, and 1% Pen-Strep. Induction of HIV-1 using TNF-α (Butera, S. T., et al, J. Virol. Vol. 65, pp. 4645-4653 (1991)), and antiviral assays (Butera, S. T., et al MoL Med. Vol. 1, pp. 758-767 (1995), Critchfield, J. W., et al., AIDS Res. Hum. Retr. Vol. 12, pp. 39-46 (1996)), were performed as described. For binding studies, cultures were grown to a density of 106 /ml, washed twice with cold PBS, and the cell pellet either flash-frozen in dry ice/ethanol for storage at -70° C., or immediately lysed in 1 ml cold lysis buffer/10^7 cells. Lysis buffer consisted of 0.02 M HEPES (pH 7.4), 0.5% Triton X-100, 0.3 M NaCl, 20 mM NaF, 1 mM each of Na4 P2 O7, Na3 VO4, DTT, EGTA and EDTA, 1 μg/ml each of leupeptin, aprotinin, and pepstatin, 0.5 mM PMSF, and 50 nM okadaic acid. Lysates were incubated on ice for 15 min, centrifuged at 10,000×g for 15 minutes at 4° C., then the supernatants were either used immediately or stored -70° C. For binding reactions with the chrysin affinity resin, lysates (2 ml) were diluted 1:2 with ice-cold 0.02 M HEPES (pH 7.4), then competitor compounds (or 0.1% final DMSO as the control), as indicated, were added to a final concentration of 10 μM and the lysates incubated on ice for 30 min. Chrysin-Sepharose (0.2 ml) was then added and the reactions gently mixed for 1 hr at 4° C. After 3 washes with cold 0.02 M HEPES (pH 7.4), 0.15 M NaCl, 0.25% Triton X-100, bound proteins were eluted with 2 ml 0.02 M ethanolamine (pH 9.5), 0.1% SDS, 0.5 mM chrysin, 1.0% DMSO at 23° C. Samples were concentrated via centrifugation at 23° C. through a 10 kD cut-off membrane (Centricon), then analyzed by SDS-PAGE (8%), and silver stained.
HIV-1 activation experiments were conducted in the presence or absence of DRB. […] Furthermore, the effective dose range of DRB (1-10 μM) was nearly identical to that of the other compounds (FIG. 2, inset), and toxicity over the effective dose range for the other compounds was also negligible.

HIV = details: acutely infected H9 cells (baicalin also CEM-ss cells and PBMCs); cited from earlier work
[2] = system: chrysin-binding proteins p44, p40, p29, p28 (subunits of CKII); test: Chrysin affinity resin binding reaction with competitor compounds in OM-10.1 cell lysates (SDS-PAGE silver stain, anti-CKII immunoblot); parameters: species or system human; details: for effect of competitor on binding of proteins (p44, p40, p29, p28) to the chrysin-resin: competitor 10 μM added to lysate of TNF-α-induced OM-10.1 cells; for effect of competitor on binding of proteins (p44, p40, p29, p28) to the chrysin-resin / effect of competitor on binding of p28 to chrysin resin: silver staining; for effect of competitor on immunodetection of α, α' and β subunits of CKII bound to the chrysin resin / effect of competitor on binding of p28 to chrysin resin: competitor 10 μM; for effect of competitor on immunodetection of α, α' and β subunits of CKII bound to the chrysin resin: anti-CKII immunoblot
Procedure: The affinity resin was made by attachment of 4'-OH-chrysin chrysin (apigenin) to epoxy-activated Sepharose 6B, resulting in chrysin in an ether-linkage. The resin (2 g, dry) was washed with water then 0.1 N NaOH, added to 60 ml 0.01 M apigenin in 0.1 N NaOH (or 0.1 N NaOH only for a non-derivatized control resin), and incubated with gentle mixing for 24 hr at 37° C. The resin then underwent a series of washes (Ghenbot, et al., Prot. Expr. Purif. Vol. 3, pp. 470-478 (1992)) and the residual reactive groups capped with 0.1 M ethanolamine for 16 hr at 37° C. After washing with water, the resin was stored at 4° C. in 0.2% NaN3.
as §2
For Western analysis, proteins were transferred to PVDF and probed with a combination of two antibody reagents, one recognizing an epitope common to both the α and α' subunit of CKII (Upstate Biotechnology) and the other reacting with the β subunit of CKII (a gift from D. Litchfield, University of Western Ontario). Final detection was with enhanced chemiluminescence (Amersham).
To identify the targets of HIV-1 inhibitory flavonoids, Sepharose was derivatized with the flavonoid chrysin and interacted with lysates from OM-10.1 cells as described in Example I. Cultures induced to maximally express HIV-1 (24 hr treatment with TNF-α) were utilized to ensure the presence of both cellular and viral proteins.
To further confirm that the chrysin-binding proteins were indeed the subunits of CKII, resin-binding reactions were performed using a selective inhibitor of CKII activity, 5,6 dichloro-1-β-D-ribofuranosylbenzimidazole (DRB), and the results analyzed by silver staining and anti-CKII immunoblotting. […] Since the apparent mass of the β chain of CKII is increased by phosphorylation (Luscher, B. L., et al. Eur. J. Biochem. Vol. 220, pp. 521-526 (1994)), it was possible that p28 represented an unphosphorylated form of p29. […] Furthermore, the major p28 band observed by silver stain was absent by immunoblot analysis. This absence was not due to an inability of the CKIIβ antibody to recognize dephosphorylated CKIIβ, which had lower apparent mass following alkaline phosphatase treatment. […]

HIV-1 [3] = details: latently and chronically infected cells; Butera et al. 1995, Critchfield et al. 1996; cited from earlier work
[4] = target: human recombinant CKII (ααββ form) (Homo sapiens, UniProt P68400); test: Human recombinant CKII enzyme kinetics; format: biochemical; details: for inhibition of CKII enzymatic activity: 37° C.
Chain of human recombinant CKII (ααββ form) (P68400 whole entry): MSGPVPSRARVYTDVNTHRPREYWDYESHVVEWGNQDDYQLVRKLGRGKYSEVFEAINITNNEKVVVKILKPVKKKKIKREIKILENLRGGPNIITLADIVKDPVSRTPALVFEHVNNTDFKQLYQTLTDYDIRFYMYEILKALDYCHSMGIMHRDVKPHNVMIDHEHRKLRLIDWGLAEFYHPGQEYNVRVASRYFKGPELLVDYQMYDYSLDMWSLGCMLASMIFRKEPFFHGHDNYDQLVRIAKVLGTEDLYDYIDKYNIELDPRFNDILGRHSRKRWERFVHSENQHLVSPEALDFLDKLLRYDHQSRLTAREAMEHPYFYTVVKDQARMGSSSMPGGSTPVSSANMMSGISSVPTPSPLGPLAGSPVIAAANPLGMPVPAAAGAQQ
Chain of human recombinant CKII (ααββ form) (P67870 whole entry partner): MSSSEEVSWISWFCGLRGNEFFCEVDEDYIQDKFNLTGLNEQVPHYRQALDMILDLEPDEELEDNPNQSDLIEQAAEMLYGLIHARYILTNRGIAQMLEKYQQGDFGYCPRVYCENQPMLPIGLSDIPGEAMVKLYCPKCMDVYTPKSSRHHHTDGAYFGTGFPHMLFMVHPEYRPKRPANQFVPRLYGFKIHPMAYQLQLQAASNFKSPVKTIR
Procedure: Reactions were carried out at 37° C. in 0.025 M HEPES (pH 7.4), 0.15 M KCl, 0.01 M MgCl2, 1.4 mM β-mercaptoethanol, 1 mM DTT, 1 mM EGTA, 10% glycerol, 0.32 mM synthetic CKII peptide, ([…]), 1 μU/μl CKII, and the indicated concentrations of ATP and test agents. Unincorporated [γ-^32 P] ATP was removed by spotting reactions onto P81 phosphocellulose paper (Whatman) and washing in 0.75 mM phosphoric acid then acetone.

casein kinase I = details: Shugar 1994; cited from earlier work
NF-κB = NF-κB activation and I-κB degradation upon cellular activation; format: cell-based
OM-10.1 cells = test: OM-10.1 culture viability (flow cytometric propidium iodide exclusion); format: cell-based, human; details: OM-10.1 cultures; viability assessed at 24 hr
Procedure: as §1

HIV-1 [5] = test: Down modulation of cell surface CD4 in TNF-α-induced OM-10.1 cultures; format: cell-based, HIV-1 in OM-10.1 cells
Source text: Critical tools for studying the efferent phase of the HIV life cycle are the latently infected cell lines such as UI, ACH2, J1, and OM-10.1. […] HIV activation can also be achieved by phorbol esters such as PMA (phorbol -12-myristate-13-acetate).
The CD4 response is a direct consequence of viral activation and allows a rapid, convenient and highly reproducible assessment of treatments that modify TNF-α expression of HIV from its latent state. In addition, the down modulation of CD4 is not affected by inhibitors of virion assembly or release such as protease inhibitors. Thus, by measuring cell surface CD4 and a virion constituent such as reverse transcriptase (RT), it is possible to discriminate between inhibition of HIV assembly, release and earlier events.

## NCCNS(=O)(=O)c1ccc(Cl)c2ccncc12 [CKI-7]
HIV-1 [1]
  HIV-1 inhibitory activity in the OM-10.1 induction system: without HIV-1 inhibitory activity

## O=c1cc(-c2ccccc2)oc2cc(O)cc(O)c12 [chrysin]
HIV
  inhibition of HIV replication in acutely infected cells: significant inhibitory activity
[2]
  effect of competitor on binding of proteins (p44, p40, p29, p28) to the chrysin-resin: specifically inhibited in their binding to the resin
  effect of competitor on immunodetection of α, α' and β subunits of CKII bound to the chrysin resin: eliminated their immunodetection
HIV-1 [3]
  inhibition of HIV transcription: potent inhibitors
[4]
  kinetics of CKII inhibition with respect to ATP: competitive kinetics with respect to ATP
  inhibition of CKII enzymatic activity: inhibit human recombinant CKII enzymatic activity

## OC[C@H]1O[C@@H](n2cnc3cc(Cl)c(Cl)cc32)[C@H](O)[C@@H]1O [DRB, 5,6-dichloro-1-β-D-ribofuranosylbenzimidazole]
Casein kinase I
  inhibitory activity against casein kinase I: appreciable inhibitory activity
HIV-1 [1]; Human immunodeficiency virus 1, TNF-α-treated OM-10.1 cultures, RT measured 48 hr after HIV activation, read-out: ED50, reduction in culture supernatant reverse transcriptase activity
  EC50: ~2000 nM
HIV-1 [1]
  HIV-1 inhibitory activity in the OM-10.1 induction system: markedly inhibited; also recorded: potently inhibits
HIV-1 [1]; TNF-α-treated OM-10.1 cultures
  effective dose range for inhibition of HIV-1 expression: 1 to 10 µM
NF-κB; TNF-α-treated OM-10.1 cultures
  NF-κB activation and function: appeared normal
NF-κB; in the presence of compound
  degradation of I-κB upon cellular activation: Normal degradation
[2]
  effect of competitor on binding of proteins (p44, p40, p29, p28) to the chrysin-resin: prevented the binding of the same proteins that were competed by free chrysin
  effect of competitor on immunodetection of α, α' and β subunits of CKII bound to the chrysin resin: eliminated their immunodetection
  effect of competitor on binding of p28 to chrysin resin: the only exception being p28
OM-10.1 cells
  culture viability / toxicity over the effective dose range: did not decline

## Oc1cc(O)c2c(c1)OC(c1ccc(O)c(O)c1)C(O)C2 (stereo not shown) [catechin]
HIV-1 [1]
  HIV-1 inhibitory activity in the OM-10.1 induction system: lacking HIV-1 inhibitory activity
[2]
  effect of competitor on binding of proteins (p44, p40, p29, p28) to the chrysin-resin: no effect

## COc1ccc([C@@H]2CC(=O)c3c(O)cc(O[C@@H]4O[C@H](CO[C@@H]5O[C@@H](C)[C@H](O)[C@@H](O)[C@H]5O)[C@@H](O)[C@H](O)[C@H]4O)cc3O2)cc1O [hesperidin]
HIV-1 [1]
  HIV-1 inhibitory activity in the OM-10.1 induction system: lacking HIV-1 inhibitory activity
[2]
  effect of competitor on binding of proteins (p44, p40, p29, p28) to the chrysin-resin: no effect

## O=c1cc(-c2ccc(O)cc2)oc2cc(O)cc(O)c12 [apigenin]
HIV-1 [1]
  HIV-1 inhibitory activity in the OM-10.1 induction system: HIV-inhibitory
[2]
  effect of competitor on binding of proteins (p44, p40, p29, p28) to the chrysin-resin: specifically inhibited in their binding to the resin

## COc1ccc2c(c1)c(OC(C)C)c(C(N)=O)[s+]2[O-] (stereo not shown) [PD 144795]
HIV-1 [1]
  HIV-1 inhibitory activity in the OM-10.1 induction system: HIV-inhibitory
[2]
  effect of competitor on binding of proteins (p44, p40, p29, p28) to the chrysin-resin: pattern of binding inhibition identical to that of DRB
  effect of competitor on binding of p28 to chrysin resin: did not alter
HIV-1 [3]
  inhibition of HIV transcription: inhibiting HIV transcription at micromolar concentrations
[4]
  inhibition of CKII enzymatic activity: inhibition of CKII enzyme activity

## O=C(O)[C@H]1O[C@@H](Oc2cc3oc(-c4ccccc4)cc(=O)c3c(O)c2O)[C@H](O)[C@@H](O)[C@@H]1O [baicalin]
HIV
  inhibition of HIV replication in acutely infected cells: inhibits HIV replication

## O=C1CN=C(c2ccc[nH]2)c2cc(Cl)ccc2N1 [Ro 5-3335]
HIV-1 [5]
  inhibition of down modulation of CD4: inhibits both of these measures to a similar extent
HIV-1 [1]; TNF-α-induced OM-10.1 cultures
  inhibition of RT: inhibits both of these measures to a similar extent
